Assay results reported in patent publication US20150238444A1, “CHLORHEXIDINE GLUCONATE SOLUBILIZED IN A HYDROPHOBIC MONOACYLGLYCERIDE” (3M INNOVATIVE PROPERTIES COMPANY, priority 2012, published 2015).

Assay: Screening of CHG solubility in hydrophobic vehicles after vacuum-stripping water
Type: physicochemical
Procedure: General Method for Vacuum-Stripping Water from CHG Solutions. A 25 g sample of CHG/water solution (20 wt. CHG) was added to 45 g of the hydrophobic monoacylglyceride of interest in a 200 mL round bottom flask. The flask was put in a 60° C. oil bath and stirred with a magnetic stir bar. Vacuum (less than 3.3 kilopascal (25 Torr)) was pulled until bubbling stopped and the weight had closely approached the theoretical value of 50 grams—usually 30-90 minutes. […] In those cases, after nearly all the water was removed, additional hydrophobic monoacylglyceride was added to bring the final weight to 50 grams.
Screening tests were conducted to determine the solubility of CHG in a variety of hydrophobic vehicles. Samples were prepared by mixing CHG (20 wt. % solution in water, obtained from Xttrium Laboratories Inc., Chicago, Ill.) with the vehicle and vacuum stripping in accordance with the General Method for Vacuum-Stripping Water from CHG Solutions. The resulting concentration of CHG and residual water were determined. Also, the final state of the solution was qualitatively evaluated to determine whether the mixture was transparent and apparently homogenous, or clearly inhomogeneous.

[1] = after vacuum stripping of water from CHG/vehicle mixture

Row | Compound | Experimental Solubility with CHG | Final State (CHG 10 wt. %, 23-60° C.) | Water wt. % (residual water) [1] [% wt. %] | other results
1 | CCCCCCCC(=O)OCC(O)CO (stereo not drawn) [Glyceryl monocaprylate] | Yes | – | – | Final State (CHG 20 wt. %, 23-60° C.): Homogeneous
2 | CC(C)CCCCCCCCCCCCCCC(=O)OCC(O)CO (stereo not drawn) [Glyceryl monoisostearate] | Yes | Homogeneous | – | Final State (CHG 16 wt. %, 23-60° C.): Homogeneous; Final State (CHG 20 wt. %, 60° C.): Homogeneous
3 | CCCCCCCCCCCC(=O)OCC(O)CO (stereo not drawn) [Glyceryl monolaurate] | Yes | – | 0.7 | Final State (CHG 20 wt. %, 75° C.): Homogeneous
4 | CCCCCCCC/C=C\CCCCCCCC(=O)OCC(O)CO (stereo not drawn) [Glyceryl monooleate] | Yes | Homogeneous | 0.3 | –
5 | CCCCCCCCCCCCCCCCCC(=O)OCC(O)CO (stereo not drawn) [Glyceryl monostearate] | Yes | – | 0.2 | Final State (CHG 10 wt. %, 80° C.): Homogeneous

Further lines, with some results ahead:

Row | Experimental Solubility with CHG | Final State (CHG 10 wt. %, 23-60° C.) | Water wt. % (residual water) [1] [% wt. %] | Compound | other results
6 | No | Inhomogeneous | – | Polyglycerol-2-Triisostearate | CHG wt. % (resulting concentration of CHG in the vehicle) [1]: 10% wt. %
7 | No | Inhomogeneous | – | Trigyceryl diisostearate | Final State (CHG 1 wt. %, 23-60° C.): Inhomogeneous
